Here are results for three compounds from PMC4685510, “A Cell Biologist’s Field Guide to Aurora Kinase Inhibitors” (Frontiers in Oncology, 2015).

In data set [1] the target is T1, 363 human kinases (including Aurora A/B/C) (Homo sapiens, UniProt Q15831).
T1 sequence (Q15831 1-433): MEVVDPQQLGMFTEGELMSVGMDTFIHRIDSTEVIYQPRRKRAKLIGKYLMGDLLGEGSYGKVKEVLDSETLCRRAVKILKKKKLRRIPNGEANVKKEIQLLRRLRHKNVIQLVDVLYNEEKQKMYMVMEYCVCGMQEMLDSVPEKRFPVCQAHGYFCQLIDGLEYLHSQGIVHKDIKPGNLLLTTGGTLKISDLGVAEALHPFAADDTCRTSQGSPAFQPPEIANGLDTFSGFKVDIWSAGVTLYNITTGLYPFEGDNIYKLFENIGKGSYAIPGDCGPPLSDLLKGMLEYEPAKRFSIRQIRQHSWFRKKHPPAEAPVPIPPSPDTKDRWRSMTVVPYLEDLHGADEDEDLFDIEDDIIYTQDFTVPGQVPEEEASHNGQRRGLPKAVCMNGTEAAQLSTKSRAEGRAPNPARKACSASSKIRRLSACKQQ
Nature of the data set: biochemical. The note with it: LKB1. It counts as biochemical.
Description: (§1) However, the Aurora A/B selectivity ratios derived from our in vitro and in vivo data can be compared to prioritize inhibitors.

The target in data set [2] is 363 human kinases (including Aurora A/B/C) (Homo sapiens, UniProt Q16584). Nature of the data set: biochemical. Format: biochemical. The note with it: MLK3/MAP3K11, 500 nM.
363 human kinases (including Aurora A/B/C) (Homo sapiens, UniProt Q16584), sequence (Q16584 whole entry): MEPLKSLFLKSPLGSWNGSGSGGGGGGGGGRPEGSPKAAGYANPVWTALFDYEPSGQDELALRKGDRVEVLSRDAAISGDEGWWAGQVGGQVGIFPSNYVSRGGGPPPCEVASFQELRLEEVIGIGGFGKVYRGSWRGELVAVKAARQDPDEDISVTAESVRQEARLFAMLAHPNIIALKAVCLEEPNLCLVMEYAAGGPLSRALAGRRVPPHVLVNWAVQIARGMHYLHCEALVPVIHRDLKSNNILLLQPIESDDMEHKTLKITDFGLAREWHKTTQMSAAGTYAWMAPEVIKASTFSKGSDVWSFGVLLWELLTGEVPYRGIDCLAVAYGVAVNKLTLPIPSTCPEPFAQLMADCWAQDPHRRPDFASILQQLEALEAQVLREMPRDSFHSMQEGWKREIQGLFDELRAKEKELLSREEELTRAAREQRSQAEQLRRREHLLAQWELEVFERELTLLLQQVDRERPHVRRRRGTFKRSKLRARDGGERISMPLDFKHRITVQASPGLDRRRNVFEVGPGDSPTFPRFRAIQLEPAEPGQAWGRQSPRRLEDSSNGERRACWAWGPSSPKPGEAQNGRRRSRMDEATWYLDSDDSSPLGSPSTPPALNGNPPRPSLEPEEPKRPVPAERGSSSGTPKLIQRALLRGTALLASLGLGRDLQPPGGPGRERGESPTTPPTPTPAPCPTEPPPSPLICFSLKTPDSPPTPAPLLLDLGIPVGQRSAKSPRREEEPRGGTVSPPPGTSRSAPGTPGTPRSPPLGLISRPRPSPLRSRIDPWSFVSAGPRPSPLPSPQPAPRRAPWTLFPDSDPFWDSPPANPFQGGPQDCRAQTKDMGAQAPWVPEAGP
Description: as §1
Data set [3] concerns the target T2, 363 human kinases (including Aurora A/B/C) (Homo sapiens, UniProt P36888).
T2 sequence (P36888 27-993): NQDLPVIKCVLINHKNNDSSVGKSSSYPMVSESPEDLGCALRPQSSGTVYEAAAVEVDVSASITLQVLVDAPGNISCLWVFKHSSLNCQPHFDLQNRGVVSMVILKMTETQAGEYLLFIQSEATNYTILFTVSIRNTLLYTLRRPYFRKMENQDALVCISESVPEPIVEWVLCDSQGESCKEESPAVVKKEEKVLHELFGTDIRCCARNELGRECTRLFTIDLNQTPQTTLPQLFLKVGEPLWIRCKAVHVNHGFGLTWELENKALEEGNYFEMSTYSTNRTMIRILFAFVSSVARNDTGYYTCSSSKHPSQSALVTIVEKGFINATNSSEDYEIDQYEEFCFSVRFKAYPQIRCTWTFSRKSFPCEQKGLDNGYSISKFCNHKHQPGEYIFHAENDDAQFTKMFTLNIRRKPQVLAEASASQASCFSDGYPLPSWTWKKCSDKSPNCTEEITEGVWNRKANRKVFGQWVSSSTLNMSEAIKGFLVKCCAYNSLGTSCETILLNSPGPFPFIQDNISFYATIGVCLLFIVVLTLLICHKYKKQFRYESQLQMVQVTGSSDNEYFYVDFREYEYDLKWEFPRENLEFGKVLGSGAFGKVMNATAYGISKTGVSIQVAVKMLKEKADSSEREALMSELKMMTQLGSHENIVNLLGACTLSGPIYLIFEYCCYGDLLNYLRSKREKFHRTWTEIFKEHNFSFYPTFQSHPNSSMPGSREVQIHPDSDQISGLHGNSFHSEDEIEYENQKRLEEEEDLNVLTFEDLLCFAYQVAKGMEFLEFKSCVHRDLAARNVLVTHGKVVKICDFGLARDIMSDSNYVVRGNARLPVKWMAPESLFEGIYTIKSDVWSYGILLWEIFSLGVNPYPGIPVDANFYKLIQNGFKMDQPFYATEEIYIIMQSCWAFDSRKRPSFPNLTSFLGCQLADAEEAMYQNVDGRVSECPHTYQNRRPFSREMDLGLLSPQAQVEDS
Nature of the data set: biochemical. Format: biochemical. The note with it: FLT3, [ATP] 50 µM.
Description: as §1

Data set [4] concerns the target 363 human kinases (including Aurora A/B/C) (Homo sapiens, UniProt P00519). Nature of the data set: biochemical. It counts as biochemical. The note with it: ABL1, [ATP] 40 µM.
Description: as §1
Data set [5] addresses 363 human kinases (including Aurora A/B/C) (Homo sapiens, UniProt P48730). Nature of the data set: biochemical. The note with it: CK1d, [ATP] 20 µM. Format: biochemical.
Description: as §1
Data set [6] concerns the target T3, Aurora B/INCENP^783–918 (Homo sapiens, UniProt Q96GD4).
T3 construct: purchased SignalChem
Nature of the data set: Aurora B/INCENP^783–918 kinase assay (ADP-Glo). Format: biochemical.

For data set [7], the system named is HeLa, RPE1, and U2OS cells. Nature of the data set: Cellular proliferation analysis (ATPLite, 24 h). The note with it: HeLa, RPE1, U2OS; 24 h (Figure 4D, Figure S2B).
Data set [8] concerns the target T4, Aurora A/TPX2^1–43 (Homo sapiens, UniProt O14965).
T4 sequence (O14965 1-403): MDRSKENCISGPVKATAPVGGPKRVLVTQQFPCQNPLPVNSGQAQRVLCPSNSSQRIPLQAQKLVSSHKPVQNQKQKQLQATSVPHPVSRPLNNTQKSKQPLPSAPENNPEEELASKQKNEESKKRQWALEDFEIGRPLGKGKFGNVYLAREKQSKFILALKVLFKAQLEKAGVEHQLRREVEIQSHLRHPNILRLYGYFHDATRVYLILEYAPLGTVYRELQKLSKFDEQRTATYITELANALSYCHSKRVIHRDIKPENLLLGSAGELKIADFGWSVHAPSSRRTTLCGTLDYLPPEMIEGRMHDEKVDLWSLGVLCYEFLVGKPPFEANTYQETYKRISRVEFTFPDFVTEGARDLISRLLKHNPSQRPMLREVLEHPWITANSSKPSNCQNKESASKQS
T4 sequence (Q9ULW0 1-43 partner limits assumed): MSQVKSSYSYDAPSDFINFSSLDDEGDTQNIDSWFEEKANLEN
Description: Aurora A/TPX2^1–43 kinase assay (ADP-Glo).

The subject of data set [9] is U2OS cells. Description: G2 duration live imaging assay (GFP-PCNA; H2B-RFP), U2OS. It counts as cell-based. The note with it: Homo sapiens, read-out: G2/M (G2 duration) IC50.
Data set [10] concerns RPE1 cells. Description: G2 duration live imaging assay (GFP-PCNA; H2B-RFP), RPE1. Format: cell-based. The note with it: Homo sapiens, RPE-1, read-out: G2/M (G2 duration) IC50.
In data set [11] the test system is Aurora A. The note with it: ref 57; read-out: Aurora A IC50 (Published); cited from earlier work.
Data set [12] concerns HeLa cells. Nature of the data set: Cytokinesis assay (live imaging, YFP-α-tubulin; H2B-RFP), HeLa. Format: cell-based, human. The note with it: Homo sapiens; HeLa; cytokinesis failure; read-out: Cytokinesis IC50.
[13] abbreviates: 500 nM, read-out: % Enzyme Activity (relative to DMSO controls).
Setting [14] is: 100 nM, read-out: % Enzyme Activity (relative to DMSO controls).

363 human kinases (including Aurora A/B/C) (Homo sapiens, UniProt P48730), sequence (P48730 whole entry): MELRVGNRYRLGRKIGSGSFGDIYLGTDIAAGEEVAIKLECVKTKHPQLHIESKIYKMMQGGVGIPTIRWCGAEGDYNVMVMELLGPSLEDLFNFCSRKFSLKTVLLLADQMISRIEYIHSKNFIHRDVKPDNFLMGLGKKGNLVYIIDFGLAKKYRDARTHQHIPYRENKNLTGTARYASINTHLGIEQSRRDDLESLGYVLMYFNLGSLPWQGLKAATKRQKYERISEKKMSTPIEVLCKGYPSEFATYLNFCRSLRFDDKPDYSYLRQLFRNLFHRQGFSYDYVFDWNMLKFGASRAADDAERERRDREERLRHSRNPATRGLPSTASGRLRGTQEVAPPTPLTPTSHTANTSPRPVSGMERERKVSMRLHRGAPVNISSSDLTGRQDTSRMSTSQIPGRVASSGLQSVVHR
363 human kinases (including Aurora A/B/C) (Homo sapiens, UniProt P00519), sequence (P00519 whole entry): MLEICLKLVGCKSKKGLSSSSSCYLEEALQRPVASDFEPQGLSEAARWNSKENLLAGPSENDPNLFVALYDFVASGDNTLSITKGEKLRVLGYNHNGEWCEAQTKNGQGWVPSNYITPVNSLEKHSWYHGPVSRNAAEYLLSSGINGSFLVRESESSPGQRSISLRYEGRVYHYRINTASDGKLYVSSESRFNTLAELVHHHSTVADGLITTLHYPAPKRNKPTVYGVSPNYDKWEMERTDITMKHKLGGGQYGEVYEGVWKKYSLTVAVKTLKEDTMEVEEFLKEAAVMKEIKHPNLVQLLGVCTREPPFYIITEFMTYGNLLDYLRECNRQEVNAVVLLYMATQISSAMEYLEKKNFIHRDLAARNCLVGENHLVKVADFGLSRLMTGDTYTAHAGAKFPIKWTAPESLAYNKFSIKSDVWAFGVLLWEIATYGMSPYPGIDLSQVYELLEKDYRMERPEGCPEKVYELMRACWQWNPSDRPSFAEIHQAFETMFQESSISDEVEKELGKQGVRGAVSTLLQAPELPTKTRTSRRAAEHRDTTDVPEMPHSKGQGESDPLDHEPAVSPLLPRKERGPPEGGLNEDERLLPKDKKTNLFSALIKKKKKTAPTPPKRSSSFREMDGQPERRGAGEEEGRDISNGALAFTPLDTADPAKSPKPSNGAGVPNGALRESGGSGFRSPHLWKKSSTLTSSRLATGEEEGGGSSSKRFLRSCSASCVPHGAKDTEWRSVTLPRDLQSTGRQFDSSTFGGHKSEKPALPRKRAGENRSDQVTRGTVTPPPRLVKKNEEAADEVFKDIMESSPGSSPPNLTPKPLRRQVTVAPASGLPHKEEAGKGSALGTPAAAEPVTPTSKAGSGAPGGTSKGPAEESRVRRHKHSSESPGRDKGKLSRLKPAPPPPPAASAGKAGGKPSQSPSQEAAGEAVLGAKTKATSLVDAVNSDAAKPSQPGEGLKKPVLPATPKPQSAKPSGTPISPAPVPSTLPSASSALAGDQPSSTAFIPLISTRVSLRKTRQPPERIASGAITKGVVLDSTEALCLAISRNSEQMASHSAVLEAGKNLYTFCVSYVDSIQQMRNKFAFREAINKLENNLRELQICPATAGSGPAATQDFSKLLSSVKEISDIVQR
T3 sequence (Q96GD4 whole entry): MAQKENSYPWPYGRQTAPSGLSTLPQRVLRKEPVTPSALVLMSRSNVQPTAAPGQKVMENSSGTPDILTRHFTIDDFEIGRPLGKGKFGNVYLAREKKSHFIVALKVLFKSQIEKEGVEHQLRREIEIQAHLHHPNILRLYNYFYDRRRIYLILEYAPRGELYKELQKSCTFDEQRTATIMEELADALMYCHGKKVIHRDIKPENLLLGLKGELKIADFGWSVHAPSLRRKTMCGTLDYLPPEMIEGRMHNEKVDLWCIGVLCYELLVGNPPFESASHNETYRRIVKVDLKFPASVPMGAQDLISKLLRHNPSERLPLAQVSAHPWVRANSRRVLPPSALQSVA
T3 sequence (Q9NQS7 783-918 partner limits assumed): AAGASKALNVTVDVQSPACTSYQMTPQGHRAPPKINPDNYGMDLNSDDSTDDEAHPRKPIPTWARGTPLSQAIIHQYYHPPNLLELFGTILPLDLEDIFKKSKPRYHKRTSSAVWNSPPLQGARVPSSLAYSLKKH

As for `O=C(c1cccc(Cl)c1F)N1CCN(Cc2cccc(Nc3nccs3)n2)CC1` [MK-8745], the “% Enzyme Activity (relative to DMSO controls)” value in [1] (500 nM) was 25.85%; in data set [2], 92.79%; in [3] (500 nM), 88.10%; in data set [4] (500 nM), 76.80%; in [5] (500 nM), 85.06%. Further, the remaining activity at 0.5 µM worked out at 26.1% in [1] (setting [13]); 94.8% in data set [2] (read-out: % Enzyme Activity (relative to DMSO controls)); 88.4% in data set [3] (setting [13]); 77.7% in data set [4] (setting [13]); 85.5% in [5] (setting [13]). The inhibition constant Ki in data set [6] (Aurora B INCENP^783-918 Ki (example dataset, Figure 2D), calculated from the example IC50) is 58.8 nM; in data set [6] (Aurora B-INCENP^783–918 Ki Mean ± SD, [ATP] = Km(ATP) (10 μM)) it was 66.8 ± 19.6 nM; in data set [8] (Aurora A TPX2^1-43 Ki (example dataset, Figure 2D), calculated from the example IC50), 0.36 nM; in [8] (Aurora A-TPX2^1–43 Ki Mean ± SD, [ATP] = Km(ATP) (3 μM), 40 nM TPX2^1–43), 0.41 ± 0.06 nM. Besides, the IC50 in data set [6] ([ATP] = Km(ATP), example dataset) was 118 nM; in [8] it was 0.83 nM; in data set [9] it was 437 nM; in data set [10], 755 nM; in data set [11], 0.6 nM. Also, in data set [7], the “Toxicity / cytotoxicity (cellular proliferation)” value was “not cytotoxic”. In addition, in data set [8] (fold difference in potency calculated by dividing Ki values), the “Selectivity ratio Aur A-TPX2^1–43 versus Aur B-INCENP^783–918” value is given as 162 fold.

Take `CCn1cc(-c2ccnc3[nH]c(-c4cccc(CN(C)C)c4)cc23)c(-c2ccc(NC(=O)N(C)C)cc2)n1` [GSK1070916]: the IC50 in data set [12] was found to be 6 nM.

On to `O=C(O)[C@]1(Cc2cccc(Nc3nccs3)n2)CC[C@@H](Oc2cccc(Cl)c2F)CC1` [MK-5108], for which the remaining activity at 0.1 µM in data set [1] (setting [14]) turned out to be 76.6%; in [3] (setting [14]) it was 58.2%; in data set [4] (setting [14]), 15.6%; in [5] (setting [14]), 100%. Besides, the remaining activity at 0.5 µM in data set [1] (setting [13]) is 47.4%; in data set [3] (setting [13]) it was 30.9%; in data set [4] (setting [13]), 1.92%; in data set [5] (setting [13]), 86.8%. The IC50 in data set [9] was determined as 995 nM; in data set [10], 877 nM.
